Measurements as given in publication PMC7070898 (Clinical and Translational Science, 2019).

Assay: Safety and tolerability
[1] = MAD 25 mg once daily 14 days, n = 9
[2] = MAD 75 mg once daily 14 days, n = 9
[3] = MAD 200 mg once daily 14 days, n = 9

Compound: C=CC(=O)N1CCC(CNc2ncnc(N)c2-c2ccc(Oc3ccccc3)cc2)CC1 [evobrutinib]
- TEAE: Abdominal discomfort [1]: 1 (11.1) (1) n (%), (number of events)
- TEAE: Abdominal pain [1]: 0 (0.0) n (%), (number of events)
- TEAE: Application site irritation [1]: 0 (0.0) n (%), (number of events)
- TEAE: Complex regional pain [1]: 1 (11.1) (1) n (%), (number of events)
- TEAE: Constipation [1]: 0 (0.0) n (%), (number of events)
- TEAE: Dry throat [1]: 0 (0.0) n (%), (number of events)
- TEAE: Excoriation [1]: 1 (11.1) (1) n (%), (number of events)
- TEAE: Fatigue [1]: 0 (0.0) n (%), (number of events)
- TEAE: Headache [1]: 1 (11.1) (1) n (%), (number of events)
- TEAE: Muscle spasms [1]: 0 (0.0) n (%), (number of events)
- TEAE: Muscle strain [1]: 1 (11.1) (1) n (%), (number of events)
- TEAE: Nausea [1]: 0 (0.0) n (%), (number of events)
- TEAE: Overall total [1]: 3 (33.3) (6) n (%), (number of events)
- TEAE: Rhinorrhea [1]: 1 (11.1) (1) n (%), (number of events)
- TEAE: Sneezing [1]: 0 (0.0) n (%), (number of events)
- TEAE: Toothache [1]: 0 (0.0) n (%), (number of events)
- TEAE: URTI [1]: 0 (0.0) n (%), (number of events)
- TEAE: Abdominal discomfort [2]: 0 (0.0) n (%), (number of events)
- TEAE: Abdominal pain [2]: 1 (11.1) (2) n (%), (number of events)
- TEAE: Application site irritation [2]: 1 (11.1) (1) n (%), (number of events)
- TEAE: Complex regional pain [2]: 0 (0.0) n (%), (number of events)
- TEAE: Constipation [2]: 1 (11.1) (1) n (%), (number of events)
- TEAE: Dry throat [2]: 1 (11.1) (1) n (%), (number of events)
- TEAE: Excoriation [2]: 0 (0.0) n (%), (number of events)
- TEAE: Fatigue [2]: 2 (22.2) (2) n (%), (number of events)
- TEAE: Headache [2]: 2 (22.2) (2) n (%), (number of events)
- TEAE: Muscle spasms [2]: 1 (11.1) (1) n (%), (number of events)
- TEAE: Muscle strain [2]: 0 (0.0) n (%), (number of events)
- TEAE: Nausea [2]: 1 (11.1) (2) n (%), (number of events)
- TEAE: Overall total [2]: 7 (77.8) (14) n (%), (number of events)
- TEAE: Rhinorrhea [2]: 0 (0.0) n (%), (number of events)
- TEAE: Sneezing [2]: 1 (11.1) (1) n (%), (number of events)
- TEAE: Toothache [2]: 0 (0.0) n (%), (number of events)
- TEAE: URTI [2]: 1 (11.1) (1) n (%), (number of events)
- TEAE: Abdominal discomfort [3]: 0 (0.0) n (%), (number of events)
- TEAE: Abdominal pain [3]: 0 (0.0) n (%), (number of events)
- TEAE: Application site irritation [3]: 1 (11.1) (1) n (%), (number of events)
- TEAE: Complex regional pain [3]: 0 (0.0) n (%), (number of events)
- TEAE: Constipation [3]: 0 (0.0) n (%), (number of events)
- TEAE: Dry throat [3]: 0 (0.0) n (%), (number of events)
- TEAE: Excoriation [3]: 0 (0.0) n (%), (number of events)
- TEAE: Fatigue [3]: 0 (0.0) n (%), (number of events)
- TEAE: Headache [3]: 0 (0.0) n (%), (number of events)
- TEAE: Muscle spasms [3]: 0 (0.0) n (%), (number of events)
- TEAE: Muscle strain [3]: 0 (0.0) n (%), (number of events)
- TEAE: Nausea [3]: 0 (0.0) n (%), (number of events)
- TEAE: Overall total [3]: 3 (33.3) (3) n (%), (number of events)
- TEAE: Rhinorrhea [3]: 0 (0.0) n (%), (number of events)
- TEAE: Sneezing [3]: 0 (0.0) n (%), (number of events)
- TEAE: Toothache [3]: 1 (11.1) (1) n (%), (number of events)
- TEAE: URTI [3]: 1 (11.1) (1) n (%), (number of events)
- TEAE: Abdominal discomfort (MAD pooled active, n = 27): 1 (3.7) (1) n (%), (number of events)
- TEAE: Abdominal pain (MAD pooled active, n = 27): 1 (3.7) (2) n (%), (number of events)
- TEAE: Application site irritation (MAD pooled active, n = 27): 2 (7.4) (2) n (%), (number of events)
- TEAE: Complex regional pain (MAD pooled active, n = 27): 1 (3.7) (1) n (%), (number of events)
- TEAE: Constipation (MAD pooled active, n = 27): 1 (3.7) (1) n (%), (number of events)
- TEAE: Dry throat (MAD pooled active, n = 27): 1 (3.7) (1) n (%), (number of events)
- TEAE: Excoriation (MAD pooled active, n = 27): 1 (3.7) (1) n (%), (number of events)
- TEAE: Fatigue (MAD pooled active, n = 27): 2 (7.4) (2) n (%), (number of events)
- TEAE: Headache (MAD pooled active, n = 27): 3 (11.1) (3) n (%), (number of events)
- TEAE: Muscle spasms (MAD pooled active, n = 27): 1 (3.7) (1) n (%), (number of events)
- TEAE: Muscle strain (MAD pooled active, n = 27): 1 (3.7) (1) n (%), (number of events)
- TEAE: Nausea (MAD pooled active, n = 27): 1 (3.7) (2) n (%), (number of events)
- TEAE: Overall total (MAD pooled active, n = 27): 13 (48.1) (23) n (%), (number of events)
- TEAE: Rhinorrhea (MAD pooled active, n = 27): 1 (3.7) (1) n (%), (number of events)
- TEAE: Sneezing (MAD pooled active, n = 27): 1 (3.7) (1) n (%), (number of events)
- TEAE: Toothache (MAD pooled active, n = 27): 1 (3.7) (1) n (%), (number of events)
- TEAE: URTI (MAD pooled active, n = 27): 2 (7.4) (2) n (%), (number of events)
- TEAE: Abdominal pain (SAD 25 mg, n = 6): 0 (0.0) n (%), (number of events)
- TEAE: Amylase increased (SAD 25 mg, n = 6): 0 (0.0) n (%), (number of events)
- TEAE: Application site pruritus (due to ECG stickers) (SAD 25 mg, n = 6): 0 (0.0) n (%), (number of events)
- TEAE: Back pain (SAD 25 mg, n = 6): 0 (0.0) n (%), (number of events)
- TEAE: Contact dermatitis (SAD 25 mg, n = 6): 0 (0.0) n (%), (number of events)
- TEAE: Dizziness (SAD 25 mg, n = 6): 0 (0.0) n (%), (number of events)
- TEAE: Dry eye (SAD 25 mg, n = 6): 0 (0.0) n (%), (number of events)
- TEAE: Dry mouth (SAD 25 mg, n = 6): 0 (0.0) n (%), (number of events)
- TEAE: Dyspepsia (SAD 25 mg, n = 6): 0 (0.0) n (%), (number of events)
- TEAE: Excoriation (SAD 25 mg, n = 6): 0 (0.0) n (%), (number of events)
- TEAE: Headache (SAD 25 mg, n = 6): 0 (0.0) n (%), (number of events)
- TEAE: Lipase increased (SAD 25 mg, n = 6): 0 (0.0) n (%), (number of events)
- TEAE: Multiple injuries (SAD 25 mg, n = 6): 0 (0.0) n (%), (number of events)
- TEAE: Nasal congestion (SAD 25 mg, n = 6): 0 (0.0) n (%), (number of events)
- TEAE: Noncardiac chest pain (SAD 25 mg, n = 6): 0 (0.0) n (%), (number of events)
- TEAE: Odynophagia (SAD 25 mg, n = 6): 0 (0.0) n (%), (number of events)
- TEAE: Overall total (SAD 25 mg, n = 6): 0 (0.0) n (%), (number of events)
- TEAE: URTI (SAD 25 mg, n = 6): 0 (0.0) n (%), (number of events)
- TEAE: Abdominal pain (SAD 50 mg, n = 6): 0 (0.0) n (%), (number of events)
- TEAE: Amylase increased (SAD 50 mg, n = 6): 0 (0.0) n (%), (number of events)
- TEAE: Application site pruritus (due to ECG stickers) (SAD 50 mg, n = 6): 0 (0.0) n (%), (number of events)
- TEAE: Back pain (SAD 50 mg, n = 6): 1 (16.7) (1) n (%), (number of events)
- TEAE: Contact dermatitis (SAD 50 mg, n = 6): 2 (33.3) (2) n (%), (number of events)
- TEAE: Dizziness (SAD 50 mg, n = 6): 0 (0.0) n (%), (number of events)
- TEAE: Dry eye (SAD 50 mg, n = 6): 0 (0.0) n (%), (number of events)
- TEAE: Dry mouth (SAD 50 mg, n = 6): 0 (0.0) n (%), (number of events)
- TEAE: Dyspepsia (SAD 50 mg, n = 6): 1 (16.7) (1) n (%), (number of events)
- TEAE: Excoriation (SAD 50 mg, n = 6): 0 (0.0) n (%), (number of events)
- TEAE: Headache (SAD 50 mg, n = 6): 1 (16.7) (2) n (%), (number of events)
- TEAE: Lipase increased (SAD 50 mg, n = 6): 0 (0.0) n (%), (number of events)
- TEAE: Multiple injuries (SAD 50 mg, n = 6): 0 (0.0) n (%), (number of events)
- TEAE: Nasal congestion (SAD 50 mg, n = 6): 0 (0.0) n (%), (number of events)
- TEAE: Noncardiac chest pain (SAD 50 mg, n = 6): 0 (0.0) n (%), (number of events)
- TEAE: Odynophagia (SAD 50 mg, n = 6): 0 (0.0) n (%), (number of events)
- TEAE: Overall total (SAD 50 mg, n = 6): 3 (50.0) (6) n (%), (number of events)
- TEAE: URTI (SAD 50 mg, n = 6): 0 (0.0) n (%), (number of events)
